Test results: PubChem BioAssay AID1117296 (The Scripps Research Institute Molecular Screening Center, 2014)
Activity calls are given as the source filed them.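 Rule for the calls: active = IC50 at or below 10 µM; inactive = IC50 above 10 µM.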

Test system: HuH7 TTR-promoter Gaussia luciferase reporter, luminescence
Test: potency of TTR promoter reporter decrease in HuH7 – cell-based, luminescence, HuH7 hepatoma, IC50, counter-screen for TTR transcription activator project, dose response (AID 1117296)

**Q.** Which IC50 does the source give for Cn1ncc(Br)c1C(=O)N1CCc2ccccc21 here?
**A.** > 167 µM (inactive)

**Q.** For Cc1ccc(CNC(=O)Cc2ccc(-c3ccccc3)cc2)cc1, which IC50 is on record?
**A.** > 167 µM (inactive)

**Q.** With COc1ccc(-c2noc(-c3cccs3)n2)cc1OC as the molecule, how does the IC50 read?
**A.** > 167 µM (inactive)

**Q.** Which IC50 does the source give for Cn1c(O)c(/C=C2\N=c3ccccc3=C2CCNC(=S)NC2CC2)c(=O)n(C)c1=O here?
**A.** 45 µM (inactive)

**Q.** With Cc1c(C(=O)N2CCc3ccccc32)cnn1C as the molecule, how does the IC50 read?
**A.** > 167 µM (inactive)

**Q.** Which IC50 does the source give for Cn1cc(Br)c(C(=O)N2CCc3ccccc32)n1 here?
**A.** > 167 µM (inactive)

**Q.** With O=C(O)c1ccc(CSc2nnc(Cc3ccccc3)o2)cc1 as the molecule, how does the IC50 read?
**A.** 27.3 µM (inactive)

**Q.** Which IC50 does the source give for Cc1ccc(/C=N/NC(=O)c2csc(C)c2)o1 here?
**A.** 116 µM (inactive)

**Q.** Cc1nnc(SCc2ccc(Cl)cc2)nc1/C=C/N(C)C was tested. Which IC50 did it give?
**A.** 81.3 µM (inactive)

**Q.** How did the IC50 turn out when CC1CN(Cc2ccccc2)c2nc3c(c(=O)n(CC(N)=O)c(=O)n3C)n2C1 (stereo not given) was run?
**A.** > 167 µM (inactive)

**Q.** For C=CCn1c(=O)c2c(nc3n2CC(C)CN3Cc2ccccc2)n(C)c1=O (stereo not given), which IC50 is on record?
**A.** 82.5 µM (inactive)

**Q.** For Cn1nccc1C(=O)N1CCc2ccccc21, which IC50 is on record?
**A.** > 167 µM (inactive)

**Q.** Which IC50 does the source give for CCCNC(=O)c1ccc(N2CCC3(CC2)CC(c2ccccc2)=NO3)c(NC(=O)c2ccco2)c1 here?
**A.** > 167 µM (inactive)

**Q.** How did the IC50 turn out when CC(=O)c1cc(C(C)=O)c(C)nc1C was run?
**A.** > 167 µM (inactive)

**Q.** Which IC50 does the source give for OCCNc1c2ccccc2nc2ccccc12 here?
**A.** 54.9 µM (inactive)

**Q.** Cc1cc(C)n(CC(=O)n2c(C)c(C)c3ccccc32)n1 was tested. Which IC50 did it give?
**A.** > 167 µM (inactive)

**Q.** Which IC50 does the source give for CN(Cc1ccccc1)C(=O)c1[nH]cnc1C(=O)NCC(=O)OC(C)(C)C here?
**A.** > 167 µM (inactive)

**Q.** How did the IC50 turn out when CCn1ncc(/C=N\NC(=O)c2csc3ccccc23)c1C was run?
**A.** > 167 µM (inactive)

**Q.** N=c1ccn(CC(=O)NC(N)=O)c2ccccc12 was tested. Which IC50 did it give?
**A.** > 167 µM (inactive)

**Q.** O=[N+]([O-])c1cccc(-c2noc(-c3ccco3)n2)c1 was tested. Which IC50 did it give?
**A.** > 167 µM (inactive)

**Q.** Which IC50 does the source give for CC(C)CNC(=O)CSc1nnc2ccccn12 here?
**A.** > 167 µM (inactive)

**Q.** With CN(C)CC(CCC(CN(C)C)C(O)(c1ccccc1)c1ccccc1)C(O)(c1ccccc1)c1ccccc1 (stereo not given) as the molecule, how does the IC50 read?
**A.** 17.2 µM (inactive)

**Q.** O=c1cc(O)c2sc(Nc3ccc(Cl)c(F)c3)nc2[nH]1 was tested. Which IC50 did it give?
**A.** > 167 µM (inactive)

**Q.** CCOc1ccc(N=C2NC(=O)S/C2=C\c2ccc(O)cc2)cc1 was tested. Which IC50 did it give?
**A.** > 167 µM (inactive)

**Q.** How did the IC50 turn out when CCCCn1c(O)c(C(=O)/C=C/c2ccc3c(c2)OCO3)c(=O)[nH]c1=O was run?
**A.** 90.9 µM (inactive)

**Q.** How did the IC50 turn out when COc1ccc(CCNc2c3ccccc3nc3ccccc23)cc1OC was run?
**A.** 54.4 µM (inactive)

**Q.** Which IC50 does the source give for COc1ccc2cc3c(N)nn(C(=O)c4ccccc4[N+](=O)[O-])c3nc2c1 here?
**A.** 34.8 µM (inactive)

**Q.** How did the IC50 turn out when O=C(CCl)c1cc2c3c(c1)CC(=O)N3CCC2 was run?
**A.** 19.8 µM (inactive)

**Q.** How did the IC50 turn out when COc1cccc(-c2csc(NC(=O)C3CC3)n2)c1 was run?
**A.** 103 µM (inactive)

**Q.** How did the IC50 turn out when Cc1c(NS(=O)(=O)c2ccc(NC3CCCC3)c([N+](=O)[O-])c2)c(=O)n(-c2ccccc2)n1C was run?
**A.** > 167 µM (inactive)

**Q.** Which IC50 does the source give for COc1ccc2[nH]c3c(Cl)ncnc3c2c1 here?
**A.** > 167 µM (inactive)

**Q.** Cc1c(Br)c(C(=O)N2CCc3ccccc32)nn1C was tested. Which IC50 did it give?
**A.** > 167 µM (inactive)

**Q.** How did the IC50 turn out when Cn1ncc(Cl)c1C(=O)N1CCc2ccccc21 was run?
**A.** > 167 µM (inactive)

**Q.** How did the IC50 turn out when c1cc2c(cc1C1=Nn3c(nnc3C3CCCCC3)SC1)OCO2 was run?
**A.** 47.1 µM (inactive)

**Q.** Which IC50 does the source give for Cc1ccc(Nc2c3c(nc4ncnn24)CCC3)cc1 here?
**A.** > 167 µM (inactive)

**Q.** How did the IC50 turn out when COc1ccc(C(=O)NC2CCCc3c2cnn3-c2cc(F)cc(F)c2)c(OC)c1OC (stereo not given) was run?
**A.** 61.9 µM (inactive)

**Q.** How did the IC50 turn out when CN(C)CCNc1ccc(CO)c2oc3ccc(O)cc3c(=O)c12 was run?
**A.** > 55.2 µM (inactive)

**Q.** For Cc1ccc([C@H]2C[C@@H](O)[C@H](n3cc(-c4ccc(F)cc4)nn3)CN2C(=O)c2cccs2)cc1, which IC50 is on record?
**A.** 63 µM (inactive)

**Q.** With Cc1nn(C)c(C(=O)N2CCc3ccccc32)c1Br as the molecule, how does the IC50 read?
**A.** > 167 µM (inactive)

**Q.** For CCOC(=O)Nc1nc(-c2ccccc2)c(C(=O)c2ccc(Cl)cc2)s1, which IC50 is on record?
**A.** > 55.2 µM (inactive)

**Q.** Which IC50 does the source give for COc1ccc([C@@H]2CC=C(C(=O)O)[C@H](c3ccccc3F)N2S(=O)(=O)c2ccccc2C)cc1 here?
**A.** 66.3 µM (inactive)

**Q.** COc1ccc(-c2cc(C)no2)cc1S(=O)(=O)NCc1cccc(C)c1 was tested. Which IC50 did it give?
**A.** > 167 µM (inactive)

**Q.** For Cc1cccc(NC(c2ccc(O)cc2)c2ccc3ccc(C)nc3c2O)n1 (stereo not given), which IC50 is on record?
**A.** 61.8 µM (inactive)

**Q.** For O=C/C(=C\Nc1ccccn1)c1nc2ccccc2o1, which IC50 is on record?
**A.** > 18.4 µM (inactive)

**Q.** Which IC50 does the source give for Cn1cc(C2CC(c3ccccc3)=NN2C(=O)c2ccccc2)c2ccccc21 (stereo not given) here?
**A.** > 167 µM (inactive)

**Q.** For CCCC(=O)NC1=C(N2CC2)C(=O)C(NC(=O)CCC)=C(N2CC2)C1=O, which IC50 is on record?
**A.** 23.5 µM (inactive)

**Q.** With C/C(=N\Nc1ncc(Br)cn1)c1cccc([N+](=O)[O-])c1 as the molecule, how does the IC50 read?
**A.** > 167 µM (inactive)

**Q.** CC(Oc1ccccc1)C(=O)N1CCN=C1SCc1ccccc1 (stereo not given) was tested. Which IC50 did it give?
**A.** 70.7 µM (inactive)

**Q.** For Cc1cccc(N(C)c2ncnc3onc(-c4ccc(F)cc4)c23)c1C, which IC50 is on record?
**A.** > 55.2 µM (inactive)

**Q.** For Cc1cnc(NC(=O)CCCc2nc3ccccc3s2)s1, which IC50 is on record?
**A.** > 167 µM (inactive)

**Q.** With Cc1cc(C(=O)N2CCc3ccccc32)n(-c2ccccc2)n1 as the molecule, how does the IC50 read?
**A.** 175 µM (inactive)

**Q.** Cc1ccc(C2CC(c3ccccc3)=NN2C(=S)Nc2ccccc2)o1 (stereo not given) was tested. Which IC50 did it give?
**A.** > 167 µM (inactive)

**Q.** Which IC50 does the source give for Cc1ccccc1Cn1cc(COC(=O)N(C)Cc2ccccc2)nn1 here?
**A.** 115 µM (inactive)

**Q.** With [O-]/C(=C(\C(=S)Nc1ccc(SC(F)F)cc1)[n+]1ccccc1)c1cc(Cl)ccc1Cl as the molecule, how does the IC50 read?
**A.** > 167 µM (inactive)

**Q.** c1ccc(Sc2ncnc3c2oc2ccccc23)nc1 was tested. Which IC50 did it give?
**A.** 142 µM (inactive)
